Source: US9493448B2, “Cycloalkane derivatives” (Daiichi Sankyo Company, Limited, priority 2012, dated 2016)

How the values were obtained:
[1] = test system: mice and rats affected by thermal hyperalgesia; test: Thermal hyperalgesia assay; type: in vivo; details: oral administration, constant dose, against the vehicle treatment group; latency to escape behaviors after thermal stimulation of hind paw;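 note: measurement times set by the study director and not disclosed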
hNav 1.7 = hNav 1.7 (Homo sapiens (Human), UniProt Q15858); test: Electrophysiological evaluation, automated patch clamp IonWorks Quattro (Population Patch Clamp mode); type: cell-based; details: HEK293A cells stably expressing hNav 1.7/β1/β2; response to second depolarization pulse, pre-pulse potential set to V1/2; read-out: hNav1.7 IC50
Chain of hNav 1.7 (Q15858 whole entry): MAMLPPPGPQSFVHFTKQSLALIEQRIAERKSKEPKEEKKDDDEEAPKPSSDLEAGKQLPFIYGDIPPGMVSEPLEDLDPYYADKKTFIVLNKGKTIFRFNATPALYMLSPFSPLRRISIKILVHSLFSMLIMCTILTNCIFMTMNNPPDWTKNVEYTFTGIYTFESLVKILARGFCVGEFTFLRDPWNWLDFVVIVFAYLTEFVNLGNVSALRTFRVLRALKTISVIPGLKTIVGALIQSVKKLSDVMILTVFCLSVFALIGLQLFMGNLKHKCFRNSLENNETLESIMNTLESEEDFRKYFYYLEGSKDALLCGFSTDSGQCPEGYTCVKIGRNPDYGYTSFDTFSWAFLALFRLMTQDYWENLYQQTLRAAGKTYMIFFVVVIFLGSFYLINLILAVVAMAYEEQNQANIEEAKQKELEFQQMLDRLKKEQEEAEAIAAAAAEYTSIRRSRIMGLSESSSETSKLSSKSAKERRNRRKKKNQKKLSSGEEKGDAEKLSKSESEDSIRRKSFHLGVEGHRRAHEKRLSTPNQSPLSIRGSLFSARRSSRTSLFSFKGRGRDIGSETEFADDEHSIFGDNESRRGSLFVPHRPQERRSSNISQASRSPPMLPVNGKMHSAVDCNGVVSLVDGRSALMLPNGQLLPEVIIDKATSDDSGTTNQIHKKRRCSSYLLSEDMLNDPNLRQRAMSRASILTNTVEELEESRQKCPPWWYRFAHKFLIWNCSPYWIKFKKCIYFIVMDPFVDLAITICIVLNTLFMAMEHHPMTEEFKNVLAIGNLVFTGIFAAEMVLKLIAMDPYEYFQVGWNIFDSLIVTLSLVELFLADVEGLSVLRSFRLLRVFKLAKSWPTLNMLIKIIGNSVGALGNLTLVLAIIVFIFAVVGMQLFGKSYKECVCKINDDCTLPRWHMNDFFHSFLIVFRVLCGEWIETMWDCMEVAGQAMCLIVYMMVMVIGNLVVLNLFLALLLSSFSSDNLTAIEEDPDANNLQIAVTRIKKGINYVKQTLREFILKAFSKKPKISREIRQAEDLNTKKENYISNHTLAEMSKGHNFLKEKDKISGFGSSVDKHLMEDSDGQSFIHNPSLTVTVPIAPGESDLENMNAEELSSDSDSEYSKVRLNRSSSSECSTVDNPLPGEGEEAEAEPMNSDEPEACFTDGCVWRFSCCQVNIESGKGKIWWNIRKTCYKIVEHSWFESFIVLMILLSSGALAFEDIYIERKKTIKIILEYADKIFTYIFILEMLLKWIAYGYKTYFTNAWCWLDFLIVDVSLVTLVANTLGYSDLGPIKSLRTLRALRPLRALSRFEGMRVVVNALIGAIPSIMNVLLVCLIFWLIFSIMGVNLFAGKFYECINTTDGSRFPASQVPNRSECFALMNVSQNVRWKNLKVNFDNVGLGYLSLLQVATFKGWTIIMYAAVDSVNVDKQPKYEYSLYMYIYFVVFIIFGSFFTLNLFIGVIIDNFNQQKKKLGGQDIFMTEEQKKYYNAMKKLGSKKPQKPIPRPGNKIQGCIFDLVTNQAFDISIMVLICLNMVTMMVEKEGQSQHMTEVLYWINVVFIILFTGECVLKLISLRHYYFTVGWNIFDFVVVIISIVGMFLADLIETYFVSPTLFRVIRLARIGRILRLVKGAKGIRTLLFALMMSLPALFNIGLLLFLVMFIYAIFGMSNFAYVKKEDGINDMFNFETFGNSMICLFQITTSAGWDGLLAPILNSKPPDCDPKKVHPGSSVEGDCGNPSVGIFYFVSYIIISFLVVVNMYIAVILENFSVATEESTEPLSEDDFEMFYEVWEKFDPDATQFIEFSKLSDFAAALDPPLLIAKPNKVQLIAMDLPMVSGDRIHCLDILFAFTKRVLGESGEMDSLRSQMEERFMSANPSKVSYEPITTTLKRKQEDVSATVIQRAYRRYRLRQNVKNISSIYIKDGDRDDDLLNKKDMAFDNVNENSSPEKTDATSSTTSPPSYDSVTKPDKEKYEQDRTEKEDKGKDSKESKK
Chain of hNav 1.7 (Q07699 19-218 partner): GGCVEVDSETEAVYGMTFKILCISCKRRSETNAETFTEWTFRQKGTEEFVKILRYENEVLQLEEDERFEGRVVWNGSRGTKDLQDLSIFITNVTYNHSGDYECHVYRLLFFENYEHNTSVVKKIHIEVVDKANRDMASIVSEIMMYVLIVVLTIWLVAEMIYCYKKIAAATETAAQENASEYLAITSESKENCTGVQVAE
Chain of hNav 1.7 (O60939 30-215 partner): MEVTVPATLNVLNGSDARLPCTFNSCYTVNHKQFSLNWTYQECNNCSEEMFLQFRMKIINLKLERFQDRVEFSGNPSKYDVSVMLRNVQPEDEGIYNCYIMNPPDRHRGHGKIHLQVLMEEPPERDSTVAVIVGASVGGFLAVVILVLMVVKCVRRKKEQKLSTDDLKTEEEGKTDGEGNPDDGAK

Structure (SMILES)	Ratio of improving pain score (%) [1]	IC50 (hNav 1.7) [nM]
O=S(=O)(Nc1ccncn1)c1ccc(O[C@H]2CCCC[C@@H]2c2cn[nH]c2)cc1F (relative stereo) [Example 108, 2-Fluoro-4-{[(1S*,2R*)-2-(1H-pyrazol-4-yl)cyclohexyl]oxy}-N-(pyrimidin-4-yl)benzenesulfonamide]	A (“A” when the rate was 61 to 100%)	1700
Cn1nccc1[C@H]1CCC(F)(F)C[C@@H]1Oc1cc(F)c(S(=O)(=O)Nc2ccncn2)c(F)c1 (relative stereo) [Example 109, 4-{[(1S*,2R*)-5,5-Difluoro-2-(1-methyl-1H-pyrazol-5-yl)cyclohexyl]oxy}-2,6-difluoro-N-(pyrimidin-4-yl)benzenesulfonamide]	B (“B” when the rate was 31 to 60%)	50
Cn1nccc1[C@H]1CCC(F)(F)C[C@@H]1Oc1ccc(S(=O)(=O)Nc2ccncn2)c(F)c1 (relative stereo) [Example 110, 4-{[(1S*,2R*)-5,5-Difluoro-2-(1-methyl-1H-pyrazol-5-yl)cyclohexyl]oxy}-2-fluoro-N-(pyrimidin-4-yl)benzenesulfonamide]	B (“B” when the rate was 31 to 60%)	300
Cn1nccc1[C@H]1CCC[C@@H]1Oc1cc(F)c(S(=O)(=O)Nc2ccnc(F)n2)c(F)c1 (relative stereo) [Example 111, 2,6-Difluoro-N-(2-fluoropyrimidin-4-yl)-4-{[(1S*,2R*)-2-(1-methyl-1H-pyrazol-5-yl)cyclopentyl]oxy}benzenesulfonamide]	A (“A” when the rate was 61 to 100%)	30
Cn1nccc1[C@H]1CCC[C@@H]1Oc1ccc(S(=O)(=O)Nc2ccnc(F)n2)c(F)c1 (relative stereo) [Example 114, 2-Fluoro-N-(2-fluoropyrimidin-4-yl)-4-{[(1S*,2R*)-2-(1-methyl-1H-pyrazol-5-yl)cyclopentyl]oxy}benzenesulfonamide]	B (“B” when the rate was 31 to 60%)	78
CCn1nccc1[C@H]1CCC[C@@H]1Oc1ccc(S(=O)(=O)Nc2ccncn2)c(F)c1 (relative stereo) [Example 115, 4-{[(1S*,2R*)-2-(1-Ethyl-1H-pyrazol-5-yl)cyclopentyl]oxy}-2-fluoro-N-(pyrimidin-4-yl)benzenesulfonamide]	A (“A” when the rate was 61 to 100%)	580
Nc1n[nH]cc1[C@H]1CCCC[C@@H]1Oc1cc(F)c(S(=O)(=O)Nc2cscn2)c(F)c1 (relative stereo) [Example 116, 4-{[(1S*,2R*)-2-(3-Amino-1H-pyrazol-4-yl)cyclohexyl]oxy}-2,6-difluoro-N-(1,3-thiazol-4-yl)benzenesulfonamide]	B (“B” when the rate was 31 to 60%)	170
CO[C@@H]1C[C@H](Oc2cc(F)c(S(=O)(=O)Nc3ccncn3)cc2F)[C@@H](c2ccnn2C)C1 (relative stereo) [Example 120, 2,5-Difluoro-4-{[(1S*,2R*,4S*)-4-methoxy-2-(1-methyl-1H-pyrazol-5-yl)cyclopentyl]oxy}-N-(pyrimidin-4-yl)benzenesulfonamide]	C (“C” when the rate was 0 to 30%)	270
Cc1cc(S(=O)(=O)Nc2nncs2)c(F)cc1O[C@H]1CC(F)(F)CC[C@@H]1c1ccnn1C (relative stereo) [Example 125, 4-{[(1S*,2R*)-5,5-Difluoro-2-(1-methyl-1H-pyrazol-5-yl)cyclohexyl]oxy}-2-fluoro-5-methyl-N-(1,3,4-thiadiazol-2-yl)benzenesulfonamide]	C (“C” when the rate was 0 to 30%)	200
Cc1cc(S(=O)(=O)Nc2ccncn2)c(F)cc1O[C@H]1CCC(F)(F)C[C@@H]1c1ccnn1C (relative stereo) [Example 126, 4-{[(1S*,2R*)-4,4-Difluoro-2-(1-methyl-1H-pyrazol-5-yl)cyclohexyl]oxy}-2-fluoro-5-methyl-N-(pyrimidin-4-yl)benzenesulfonamide]	C (“C” when the rate was 0 to 30%)	14
Cc1cc(S(=O)(=O)Nc2ccncn2)c(F)cc1O[C@H]1CC(F)(F)CC[C@@H]1c1cn[nH]c1 (relative stereo) [Example 127, 4-{[(1S*,2R*)-5,5-Difluoro-2-(1H-pyrazol-4-yl)cyclohexyl]oxy}-2-fluoro-5-methyl-N-(pyrimidin-4-yl)benzenesulfonamide]	A (“A” when the rate was 61 to 100%)	120
Cn1nccc1[C@H]1CC(F)(F)CC[C@@H]1Oc1cc(F)c(S(=O)(=O)Nc2ccncn2)c(F)c1 (relative stereo) [Example 129, 4-{[(1S*,2R*)-4,4-Difluoro-2-(1-methyl-1H-pyrazol-5-yl)cyclohexyl]oxy}-2,6-difluoro-N-(pyrimidin-4-yl)benzenesulfonamide]	C (“C” when the rate was 0 to 30%)	100
Cn1nccc1[C@H]1CC(F)(F)CC[C@@H]1Oc1cc(F)c(S(=O)(=O)Nc2ccncn2)cc1Cl (relative stereo) [Example 131, 5-Chloro-4-{[(1S*,2R*)-4,4-difluoro-2-(1-methyl-1H-pyrazol-5-yl)cyclohexyl]oxy}-2-fluoro-N-(pyrimidin-4-yl)benzenesulfonamide]	C (“C” when the rate was 0 to 30%)	59
Cn1nccc1[C@H]1CC(F)(F)C[C@@H]1Oc1ccc(S(=O)(=O)Nc2ccncn2)c(F)c1F (relative stereo) [Example 132, 4-{[(1S*,2R*)-4,4-Difluoro-2-(1-methyl-1H-pyrazol-5-yl)cyclopentyl]oxy}-2,3-difluoro-N-(pyrimidin-4-yl)benzenesulfonamide]	A (“A” when the rate was 61 to 100%)	200
Cc1cc(S(=O)(=O)Nc2ccncn2)c(F)cc1O[C@H]1CC(F)(F)C[C@@H]1c1ccnn1C (relative stereo) [Example 133, 4-{[(1S*,2R*)-4,4-Difluoro-2-(1-methyl-1H-pyrazol-5-yl)cyclopentyl]oxy}-2-fluoro-5-methyl-N-(pyrimidin-4-yl)benzenesulfonamide]	A (“A” when the rate was 61 to 100%)	57
Cn1nccc1[C@H]1CCC(F)(F)C[C@@H]1Oc1cc(F)c(S(=O)(=O)Nc2nncs2)cc1Cl (relative stereo) [Example 134, 5-Chloro-4-{[(1S*,2R*)-5,5-difluoro-2-(1-methyl-1H-pyrazol-5-yl)cyclohexyl]oxy}-2-fluoro-N-(1,3,4-thiadiazol-2-yl)benzenesulfonamide]	B (“B” when the rate was 31 to 60%)	34
Cn1nccc1[C@H]1CC(F)(F)C[C@@H]1Oc1cc(F)c(S(=O)(=O)Nc2ccncn2)c(F)c1 (relative stereo) [Example 135, 4-{[(1S*,2R*)-4,4-Difluoro-2-(1-methyl-1H-pyrazol-5-yl)cyclopentyl]oxy}-2,6-difluoro-N-(pyrimidin-4-yl)benzenesulfonamide]	B (“B” when the rate was 31 to 60%)	51
Cn1nccc1[C@H]1CC(F)(F)C[C@@H]1Oc1ccc(S(=O)(=O)Nc2ccncn2)c(F)c1 (relative stereo) [Example 136, 4-{[(1S*,2R*)-4,4-Difluoro-2-(1-methyl-1H-pyrazol-5-yl)cyclopentyl]oxy}-2-fluoro-N-(pyrimidin-4-yl)benzenesulfonamide]	B (“B” when the rate was 31 to 60%)	290
Cc1cc(S(=O)(=O)Nc2ccncn2)c(F)cc1O[C@H]1CCC[C@@H]1c1ccn[nH]1 (relative stereo) [Example 138, 2-Fluoro-5-methyl-4-{[(1S*,2R*)-2-(1H-pyrazol-5-yl)cyclopentyl]oxy}-N-(pyrimidin-4-yl)benzenesulfonamide]	B (“B” when the rate was 31 to 60%)	24
O=S(=O)(Nc1ccncn1)c1c(F)cc(O[C@H]2CCC[C@@H]2c2ccn[nH]2)cc1F (relative stereo) [Example 139, 2,6-Difluoro-4-{[(1S*,2R*)-2-(1H-pyrazol-5-yl)cyclopentyl]oxy}-N-(pyrimidin-4-yl)benzenesulfonamide]	C (“C” when the rate was 0 to 30%)	35
O=S(=O)(Nc1ccncn1)c1cc(Cl)c(O[C@H]2CCC[C@@H]2c2ccn[nH]2)cc1F (relative stereo) [Example 140, 5-Chloro-2-fluoro-4-{[(1S*,2R*)-2-(1H-pyrazol-5-yl)cyclopentyl]oxy}-N-(pyrimidin-4-yl)benzenesulfonamide]	B (“B” when the rate was 31 to 60%)	34
Cn1nccc1[C@H]1CCC(F)(F)C[C@@H]1Oc1cc(F)c(S(=O)(=O)Nc2ccncn2)cc1Cl (relative stereo) [Example 141, 5-Chloro-4-{[(1S*,2R*)-5,5-difluoro-2-(1-methyl-1H-pyrazol-5-yl)cyclohexyl]oxy}-2-fluoro-N-(pyrimidin-4-yl)benzenesulfonamide]	A (“A” when the rate was 61 to 100%)	58
Cn1nccc1[C@H]1CC(F)(F)C[C@@H]1Oc1cc(F)c(S(=O)(=O)Nc2ccncn2)cc1Cl (relative stereo) [Example 146, 5-Chloro-4-{[(1S*,2R*)-4,4-difluoro-2-(1-methyl-1H-pyrazol-5-yl)cyclopentyl]oxy}-2-fluoro-N-(pyrimidin-4-yl)benzenesulfonamide]	C (“C” when the rate was 0 to 30%)	24
O=S(=O)(Nc1ccncn1)c1ccc(O[C@H]2CC(F)(F)CC[C@@H]2c2cn[nH]c2)cc1F (relative stereo) [Example 147, 4-{[(1S*,2R*)-5,5-Difluoro-2-(1H-pyrazol-4-yl)cyclohexyl]oxy}-2-fluoro-N-(pyrimidin-4-yl)benzenesulfonamide]	C (“C” when the rate was 0 to 30%)	600
